# In patent US20070232492A1, “Herbicidal Composition” (Ishihara Sangyo Kaisha, LTD., priority 2004, published 2007):
# Key:
# Format in all cases: in vivo
# [1] = test system: Japanese bulrush (Scirpus juncoides); experiment: Growth inhibition of Japanese bulrush in paddy soil pots, application under submerged condition, visual rating and Colby expected value
# Method in brief: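 Scirpus juncoides was sown in paddy soil pots flooded to 3.5 cm and treated under submerged conditions at the 2–3 leaf stage with water-diluted formulations, alone or in combination. Growth inhibition was rated visually 10 or 19 days after application (0% untreated to 100% complete kill). Expected combination values come from Colby's formula.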
# [2] = Growth inhibition of mixed broadleaf paddy weeds in paddy soil pots, application under submerged condition, visual rating and Colby expected value; details: mixed broadleaf paddy weeds, soil, 528 h, read-out: Growth inhibition rate (%) Observed
# Description: (§1) When the herbicidal activity in a case where two active ingredients are combined, is larger than the simple sum of the respective herbicidal activities of the two active ingredients (the expected activity), it is called a synergistic effect. The activity expected by the combination of two active ingredients can be calculated as follows (Colby S. R., “Weed”, vol. 15, p. 20-22, 1967). E=p+q−(p×q÷100) where p: growth inhibition rate when treated with x (g/a) of herbicide X,
# (§2) q: growth inhibition rate when treated with y (g/a) of herbicide Y,
# (§3) E: growth inhibition rate expected when treated with x (g/a) of herbicide X and y (g/a) of herbicide Y.
# (§4) Namely, when the actual growth inhibition rate (observed value) is larger than the growth inhibition rate by the above calculation (expected value), the activity by the combination can be regarded as showing a synergistic effect.
# (§5) Growth inhibition rate (%)=0% (equivalent to the non-treated area) to 100% (complete kill)
# (§6) Paddy field soil was put into a 1/1,700 are pot, and mixed seeds of false pimpernel (Lindernia pyxidaria), abunome (Dopatrium junceum), long stem waterwort (Elatine triandra SCHK.) and toothcup (Rotala india) were sown and left to stand under an irrigated condition with a water depth of 3.5 cm. When false pimpernel reached one leaf-pair stage, wettable powders of compound A2 and compound (B1.2) were, respectively, diluted with water and applied under submerged condition so that the active ingredients became the prescribed amounts, respectively. The state of growth was visually observed 21 days after application, and evaluation and calculation were carried out in the same manner as in the above Test Example 1.
# (§7) Paddy field soil was put into a 1/1,700 are pot, and mixed seeds of false pimpernel (Lindernia pyxidaria), abunome (Dopatrium junceum), long stem waterwort (Elatine triandra SCHK.) and toothcup (Rotala india) were sown and left to stand under an irrigated condition with a water depth of 3.5 cm. When false pimpernel reached two leaf-pair stage, a wettable powder of compound A2 and an emulsifiable concentrate of compound (B8.1) were, respectively, diluted with water and applied under submerged condition so that the active ingredients became the prescribed amounts, respectively. The state of growth was visually observed 22 days after application, and evaluation and calculation were carried out in the same manner as in the above Test Example 1.
# [3] = test system: rice (Oryza sativa var. Nihonbare); experiment: Growth inhibition (phytotoxicity) of transplanted rice by compound A2 with or without compound D, application under submerged condition, visual rating 7 and 21 days after application; details: Compound A2 60 g/ha, Compound D not applied, applied 5 days after implantation
# Description: as §5
# Paddy field soil was put into a 1/500,000 hectare pot, harrowed and irrigated with a depth of 3 cm. On the next day, rice (Oryza sativa var. Nihonbare) at 2 leaf stage was implanted with a depth of 3 cm. A wettable powder of compound A2 and a wettable powder of compound D were, respectively, diluted with water and applied under submerged condition 5 days after implantation so that the active ingredients became the prescribed amounts, respectively. The state of growth of rice was visually observed 7 days and 21 days after application, and the growth inhibition rate (%) was evaluated in the same is manner as in the above Test Example 1.
# [4] = test system: false pimpernel (Lindernia pyxidaria), abunome (Dopatrium junceum), long stem waterwort (Elatine triandra SCHK.) and toothcup (Rotala india); experiment: Growth inhibition of mixed broadleaf paddy weeds in paddy soil pots, application under submerged condition, visual rating and Colby expected value; details: 0.22 g/a
# Description: as §1, §2, §3, §4, §5, §6, §7
# [5] = test system: barnyardgrass (Echinochloa oryzicola vasing); experiment: Growth inhibition of barnyardgrass in paddy soil pots, foliar application with a small sprayer, visual rating and Colby expected value; details: 3.0 to 3.3 leaf stage, 21 days after application
# Description: as §1, §2, §3, §4, §5
# Paddy field soil was put into a 1/10,000 are pot, and seeds of barnyardgrass (Echinochloa oryzicola vasing) were sown and left to stand under an irrigated condition with a water depth of 3.5 cm. When barnyardgrass reached 3.0 to 3.3 leaf stage, a wettable powder of compound A2 and a water-based suspension of compound (B11.1) were, respectively, diluted with water in an amount of 1,000 liter/ha, followed by foliar application with a small sprayer. The state of growth was visually observed 21 days after application, and evaluation and calculation were carried out in the same manner as in the above Test Example 1.
# [6] = Schoenoplectiella juncoides, soil, 696 h, read-out: Growth inhibition rate (%) Observed
structure (smiles),measurement,setting,value
"CCCOCCN(C(=O)CCl)c1c(CC)cccc1CC [Compound (B3.1), pretilachlor]",inhibition at 50 g/ha,"[1]; Schoenoplectiella juncoides, soil, 240 h, 0.5 g/a, 2.3 to 2.6 leaf stage, 10 days after application, read-out: Growth inhibition rate (%) Observed",3%
same,inhibition at 100 g/ha,"[1]; Schoenoplectiella juncoides, soil, 240 h, 1 g/a, 2.3 to 2.6 leaf stage, 10 days after application, read-out: Growth inhibition rate (%) Observed",10%
"CCS(=O)(=O)Oc1ccc2c(c1)C(C)(C)CO2 [Compound (B8.1), benfuresate]",inhibition at 1200 g/ha,[2],70%
same,inhibition at 600 g/ha,[1]; [6],90%
same,inhibition at 900 g/ha,[1]; [6],89%
same,inhibition at 1200 g/ha,[1]; [6],89%
"COCC(=O)OC(c1ncccc1S(=O)(=O)NC(=O)Nc1nc(OC)cc(OC)n1)C(C)F (stereo not shown) [Compound A2, flucetosulfuron]",Growth inhibition rate (%) (average) 7 days,[3]; 7 days after application,23%
same,Growth inhibition rate (%) (average) 21 days,[3]; 21 days after application,33%
same,Growth inhibition rate (%) Observed,"[4]; false pimpernel one leaf-pair stage, 21 days after application",90%
same,Growth inhibition rate (%) Observed,"[4]; false pimpernel two leaf-pair stage, 22 days after application",65%
same,Growth inhibition rate (%) Observed,"[1]; 0.025 g/a, 2 leaf stage, 19 days after application, Test Example 33",43%
same,Growth inhibition rate (%) Observed,"[1]; 0.025 g/a, 2.3 to 2.6 leaf stage, 10 days after application",27%
same,Growth inhibition rate (%) Observed,"[1]; 0.05 g/a, 2 leaf stage, 19 days after application, Test Example 33",70%
same,Growth inhibition rate (%) Observed,"[1]; 0.05 g/a, 2.3 to 2.6 leaf stage, 10 days after application",40%
same,Growth inhibition rate (%) Observed,"[1]; 0.075 g/a, 2.6 to 3.1 leaf stage, 22 days after application, Test Examples 50, 58",94%
same,Growth inhibition rate (%) Observed,"[1]; 0.1 g/a, 2.3 to 2.6 leaf stage, 10 days after application",63%
same,Growth inhibition rate (%) Observed,"[1]; 0.125 g/a, 2 leaf stage, 19 days after application, Test Example 34",50%
same,Growth inhibition rate (%) Observed,"[1]; 0.15 g/a, 2.6 to 3.1 leaf stage, 22 days after application, Test Examples 50, 58",93%
same,Growth inhibition rate (%) Observed,"[1]; 0.167 g/a, 2 leaf stage, 19 days after application, Test Example 34",79%
same,Growth inhibition rate (%) Observed,"[1]; 0.22 g/a, 2.2 to 2.8 leaf stage, 29 days after application, Test Example 44",87%
same,Growth inhibition rate (%) Observed,"[1]; 1.5 g/a, 2 leaf stage, 19 days after application, Test Example 34",87%
same,Growth inhibition rate (%) Observed,"[1]; 8.3 g/ha, 3 leaf stage, 19 days after application, Test Example 37",70%
same,Growth inhibition rate (%) Observed,[5]; 0.083 g/a,23%
same,Growth inhibition rate (%) Observed,[5]; 0.11 g/a,50%
same,Growth inhibition rate (%) Observed,[5]; 0.165 g/a,60%
